Measured values from patent publication US20090252704A1, “THERAPIES FOR COGNITION AND LEARNING ENHANCEMENT” (priority 2008, published 2009).

Tests used:
scopolamine treated mice = test: step through passive avoidance (STPA) in scopolamine treated mice; type: in vivo, Male C57BL/6 mice
Description: Male C57BL/6 mice weighing 20-25 g (6-8 weeks of age) were maintained in a controlled environment (housed at 5 per cage; at 22-25 C.°; 12/12 light/dark cycle) and allowed to acclimate 2 weeks before initiation of the STPA task. The STPA apparatus consists of a box with two compartments light and dark; each of 20×9.5×16.5 cm^3 (Ugo Basile Rat Passive Avoidance Apparatus, customized for mice with chamber inserts). Mice were transported to the testing facility in covered cages and whilst in training or testing phases were housed at 1 or 2 per cage.
STPA Habituation phase: Mice are placed in the light compartment and latency to enter the dark compartment is recorded. The criteria of success is entrance to the dark compartment within 30 sec twice in three trails or three times in five trials; showing the normal aversion of mice to a highly lit space.
STPA Training phase: In acute drug testing, 2 hrs after habituation is complete; 30 min (t=−30) and 20 min (t=−20) prior to training, scopolamine (or saline) and test drug (or vehicle), respectively, are administered. In the drinking water protocol, at t=−30 prior to training, scopolamine (or saline) is administered. Mice are placed into the light compartment at time zero. Upon entry into the dark compartment, an automatic door closes and 2.0 sec shock (0.5 mA) is delivered through the floor grating. […] The number of trials to reach criterion is recorded for assessment of secondary biomarkers, such as analgesia.
STPA Testing phase: At 24 h and 48 h post training, animals are tested for memory retention without any drug administration. The animals are again placed in the light compartment. Latency to enter the dark side is recorded as a measure of memory consolidation, retention and retrieval.
Scopolamine (1 mg/kg; 1 mg/4 ml) is administered ip. Test compound (1 mg/kg, 1 mg/Kg) administered ip.
Dosing—Behavioral Studies: Drugs and vehicle were administered either i.p. for acute studies (1 mg/kg, or as indicated in the figures, in saline), otherwise in drinking water (20 mg/kg/day).
Drinking water dosing: Rodents drink continuously during the active dark cycle and intermittently during the resting light cycle.

[1] = tested on: animal models of chronic learning and cognition impairment; test: animal models of chronic learning and cognition impairment; type: in vivo; settings: chronic use

Compound | reversal of cognition deficits, comparison (FIG. 4) (scopolamine treated mice; STPA, scopolamine treated mice) | cognition deficit reversal (FIG. 1, FIG. 2 and FIG. 3) (scopolamine treated mice; in drinking water (20 mg/kg/day), STPA, scopolamine 1 mg/kg ip) | effect on learning and cognition [1] | reversal of cognition deficits, comparison (FIG. 4) (scopolamine treated mice; mouse, in vivo)
Cc1ncsc1CCO[N+](=O)[O-].Cl [GT-1061, 4-methyl-5-(2-nitroxyethyl)thiazole HCl] | reversal of cognition deficits | cognition deficit reversal | – | –
O=[N+]([O-])O[C@H]1CO[C@H]2[C@@H]1OC[C@H]2O[N+](=O)[O-] [ISDN, isosorbide dinitrate] | reversal of cognition deficits | – | enhance learning and cognition | –
Cc1ncsc1CCCl [clomethiazole] | – | – | – | reversal of cognition deficits
